From article PMC4967021 (Biochemical and biophysical research communications, 2016)
pKd: −log10 of the molar value.

Molecular target: T1, CCL21 (Homo sapiens, UniProt O00585)
T1 sequence (O00585 24-134): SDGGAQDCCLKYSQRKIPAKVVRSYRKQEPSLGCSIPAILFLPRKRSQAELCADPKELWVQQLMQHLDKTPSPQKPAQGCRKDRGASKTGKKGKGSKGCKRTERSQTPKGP
Test: […]-1H HSQC NMR titration, chemical shift perturbation fit with ligand depletion
Format: binding
Conditions: 100 µM 15N-CCL21, 25 mM deuterated MES pH 6.0, 10% D2O, 0.2% NaN3

Structure (SMILES): O=C(O)C1=C[C@H](O)[C@@H](OS(=O)(=O)O)[C@H](O[C@H]2[C@H](O)[C@@H](NS(=O)(=O)O)C(O)O[C@@H]2COS(=O)(=O)O)O1 (stereo partly shown) [heparin disaccharide I-S]
- pKd: ~3.30
